Our source for the Activity and solubility values is ChEMBL document CHEMBL4257528, “Molecular insights into the interaction of Hsp90 with allosteric inhibitors targeting the C-terminal domain” (Medchemcomm, 2018).

The source made the active and inactive calls. No cut-off for these calls is given here.

In data set [1] the target is Heat shock protein HSP 90-alpha (Homo sapiens) (UniProt P07900). Nature of the data set: Binding affinity to 1H/13C-Ile HSP90alpha CTD (unknown origin) at 2.5 mM by Methyl-TROSY […] spectrum analysis.
The nature of data set [2]: Solubility of the compound in buffer solution. Type of data set: physicochemical.
For data set [3], the target named is Heat shock protein HSP 90-alpha (Homo sapiens) (UniProt P07900). Nature of the data set: Binding affinity to N-terminal His6-tagged HSP90alpha CTD (unknown origin) expressed in Escherichia coli BL21(DE3) at compound to protein ratio of 164 by STD-NMR method.
For data set [4] the target is unchanged. In words: Binding affinity to 1H/13C-Ile HSP90alpha CTD (unknown origin) at 1.4 mM by Methyl-TROSY […] spectrum analysis.
Data set [5] has the same target. In words: Binding affinity to 1H/13C-Ile HSP90alpha CTD (unknown origin) at 0.9 mM by Methyl-TROSY […] spectrum analysis.

On to `Nc1ncnc2c1ncn2[C@@H]1O[C@H](COP(=O)(O)OP(=O)(O)NP(=O)(O)O)[C@@H](O)[C@H]1O`, for which the result in data set [1] was Active.
For the molecule `CO[C@@H]1[C@@H](O)[C@@H](O)[C@H](Oc2ccc(CCNC(C)=O)c(-c3cccc(F)c3)c2)OC1(C)C` [CEMDOMESPIB], in data set [2], the solubility entry is “Soluble”. The outcome in data set [3] and in data set [4] was Active.
On to `CO[C@@H]1[C@@H](O)[C@@H](O)[C@H](Oc2ccc3cc(NC(C)=O)c(=O)oc3c2C)OC1(C)C`, for which the solubility entry in data set [2] is listed as “Soluble”. The result in data set [5] and in data set [3] was Active.
